{
  "source": "patent US10251865B2",
  "about": "“Method of activating regulatory T cells with alpha-2B adrenergic receptor agonists” (Allergan, Inc., priority 2010, dated 2019)",
  "key": {"tear TNF-alpha and IL17": {"system": "tear TNF-alpha and IL17", "test": "Dry eye desiccating stress in mice, adoptive transfer of CD4+ T cells, recipient tear cytokines", "format": "in vivo", "settings": "donor mice treated 3 mg/kg/day for 10 days during desiccating stress; CD4+ T cells transferred to nude mice, FIG. 11", "text": "C57BL/6 (C57BL/6NTac) and B6.Cg/NTac-Foxn1nuNE9 were purchased from Taconic, Inc. (Germantown, N.Y.). Mice were used at 6-10 weeks of age. Animal studies approval was obtained from the Allergan Animal Care and Use Committee. All studies adhered to the Association for Research in Vision and Ophthalmology statement for the Use of Animals in Ophthalmic and Vision Research. As described in the literature dry eye was induced by treating mice with subcutaneous injections of scopolamine hydrobromide (0.5 mg/0.2 ml; Sigma-Aldrich, St. Louis, Mo.) three times a day alternating between the left and right flanks (Neiderkorn et al, 2006). […] Histological analysis was done by staining […] samples with antibody to CD4 and H&E staining to quantify goblet cells and T cells in the conjunctiva. […]\nThe levels of cytokines were measured with a sensitive, fluorescent multiplex immunobead assay (Luminex; Biosource-Invitrogen, Carlsbad, Calif.). […] Cytokine levels in samples were analyzed by using the corresponding Millipore cytokine Beadmate pairs. […] Beads were washed, resuspended in 125 μl of Beadlyte buffer, and analyzed by Luminex 100 instrument (Luminex Corporation, Austin, Tex.). The mean fluorescence intensities obtained from 50 beads per cytokine minimum were analyzed using Upstate Beadview software. […]"}, "EIU rats": {"system": "EIU rats", "test": "Endotoxin-induced uveitis (EIU) in rats", "format": "in vivo, rat", "protocol": "Female Lewis rats (180-200 grams) were purchased from Charles River Laboratory. Rats were footpad-injected (hind left side) with either 100 μl of 1 mg/ml LPS (Sigma) solution (in sterile pyrogen-free saline) or 150 μl of sterile pyrogen-free saline. Animals were sacrificed at 24 hours following LPS injection. Aqueous humor was collected and analyzed to determine inflammatory cell counts, levels of cytokines and chemokine concentration as well as total protein concentrations. Blood leukocyte differentiation and histopathology were also determined if required."}, "CD4+/CD25+ Treg cells": {"system": "CD4+/CD25+ Treg cells", "test": "Treg cell frequency in lymphatic organs of SNL rats (flow cytometry)", "format": "in vivo", "settings": "SNL Rat Model of Allodynic Neuropathic Pain, FIG. 2", "protocol": "The SNL (or Chung) Model in the rat is an accepted standard animal model of neuropathic pain and is thought to mimic the human causalgia condition with respect to symptoms (guarding behavior, mechanical allodynia) and alleviation by pharmacological agents. […] The SNL Model is performed by tightly ligating the L-5 and L-6 spinal nerves, which produces tactile allodynia or sensitivity to light touch as described (Kim and Chung, 1992). Male sprague-dawley rats (100-120 grams; Charles River, Wilmington, Mass.) were anesthetized through inhalation of an isoflurane/oxygen mix. The surgical site was shaved and prepared with betadine. An incision was made from the thoracic vertebra XIII toward down the sacrum. The muscle was separated from the spinal vertebra (left side) at the L4-S2 levels. […]\nTo determine surface expression of CD4 (Helper T cells), CD8 (killer T cells), CD25 (activated helper T cells and regulatory T cells), CD45 (macrophage and microglial cells) and F4/80 (macrophage and microglial cells) 5×10^5 cells/100 μL FACS buffer (PBS, 0.02% sodium azide [Sigma-Aldrich] and 2% bovine serum albumin) were incubated with appropriate antibodies from BD biosciences, Mountain View, Calif. […] Expression was analyzed (FACSCalibur with CellQuest software; BD Biosciences, Mountain View, Calif.)."}},
  "data": [
    {"compound": "CCC1=CC(Cc2c[nH]cn2)CCC1", "note": "(stereo not drawn) [Compound B]", "values": [
      {"measurement": "recipient tear level of IL-17", "setting": "tear TNF-alpha and IL17", "value": "significantly reduced"},
      {"measurement": "recipient tear level of TNFα", "setting": "tear TNF-alpha and IL17", "value": "significantly reduced"},
      {"measurement": "protein exudation in the aqueous humor", "setting": "EIU rats; 1 mg/kg/day by osmotic minipump, vs untreated or vehicle-treated (saline) controls, FIG. 9", "value": "significantly inhibited"},
      {"measurement": "decrease on blood lymphocyte populations as a result of LPS stimulation", "setting": "EIU rats; FIG. 10", "value": "significantly normalized"},
      {"measurement": "increase in blood neutrophils as a result of LPS stimulation", "setting": "EIU rats; FIG. 10", "value": "significantly normalized"},
      {"measurement": "frequency of spleen CD4+ T cells that are CD4+/CD25+ Treg cells", "setting": "CD4+/CD25+ Treg cells", "value": "Sustained increase"}
    ]}
  ]
}
